Our source for the AC50 values is patent US10633350B2, “Diphenyl derivatives and uses thereof” (NOVARTIS AG, priority 2017, dated 2020).

One test has as its system FoxO3a. The test can be described thus: FoxO3a inhibition assay (GFP-FoxO3a nuclear to cytoplasmic translocation) in U2OS GFP-FoxO3a H212R reporter cells. It counts as cell-based. Particulars: Homo sapiens, 0.5 h, serum starved overnight, 30 minutes compound treatment, ratio of nuclear to cytosolic GFP intensity, AC50 = concentration that results in 50% activation or inhibition, read-out: FoxO AC50. In short, it runs like this:
(§1)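 Serum-starved (overnight) cells treated with compounds at various doses for 30 min, then fixed in 4% paraformaldehyde and stained overnight at 4 °C for pAkt S473 with Hoechst nuclear counterstain; high-content imaging. FoxO3a readout: nuclear/cytosolic GFP ratio (%); Akt readout: total cellular pAkt intensity (%); DMSO = 0% activity.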

The subject of a further test is Akt. The test can be described thus: Akt activation assay (Phospho-AKT (Ser473) antibody staining) in U2OS GFP-FoxO3a H212R reporter cells. It counts as cell-based. Particulars: Homo sapiens, 0.5 h, serum starved overnight, 30 minutes compound treatment, total cellular intensity of Phospho-Akt (Ser473) antibody staining, AC50 = concentration that results in 50% activation or inhibition. The gist of the method: as §1

On to `Cc1nc(C(N)=O)nn1-c1ccc(Cc2ccc(-c3ccc(C(=O)NCC(C)(C)O)cc3)cc2)cc1` [Example 51, 1-(4-((4′-((2-hydroxy-2-methylpropyl)carbamoyl)-[1,1′-biphenyl]-4-yl)methyl)phenyl)-5-methyl-1H-1,2,4-triazole-3-carboxamide], for which the values for the half-maximal activity concentration (AC50) with FoxO3a and in the test on Akt were 102 nM and 300 nM, respectively.

In the case of `Cc1nc(C(N)=O)nn1-c1ccc(Cc2ccc(-c3ccc(CN4CCC(F)(F)C4)cc3)cc2)cc1` [Example 38-2], the AC50 (in general, the concentration at which the activity in the assay is half-maximal) in the test with FoxO3a worked out at 48 nM; in the test on Akt, 230 nM.

On to `Cc1cc(C(N)=O)nn1-c1ccc(Cc2ccc(-c3ccc(CN4CCNCC4)nc3)cc2)cc1` [Example 31-1, 5-methyl-1-(4-(4-(6-(piperazin-1-ylmethyl)pyridin-3-yl)benzyl)phenyl)-1H-pyrazole-3-carboxamide], for which the half-maximal activity concentration (AC50) in the test on FoxO3a turned out to be 77 nM; in the test with Akt, 354 nM.

As for `Cc1cc(C(N)=O)nn1-c1ccc(Cc2ccc(-c3ccc(CN4CCCCC4)cc3)cc2)cc1` [Example 16-6], the AC50 turned out to be 103 nM in the test with FoxO3a and 248 nM in the test on Akt.

For `Cc1nc(C(N)=O)nn1-c1ccc(Cc2ccc(-c3cccnc3)cc2)cc1` [Example 15-2], the AC50 in the test with FoxO3a turned out to be 277 nM; in the test on Akt it was 888 nM.

With `Cc1cc(C(N)=O)nn1-c1ccc(Cc2ccc(-c3ccc4c(c3)CCNC4)cc2)cc1` [Example 3-14, 5-methyl-1-(4-(4-(1,2,3,4-tetrahydroisoquinolin-6-yl)benzyl)phenyl)-1H-pyrazole-3-carboxamide], the AC50 in the test on FoxO3a was determined as 53 nM; with Akt, 161 nM.

Take `Cc1nc(C(N)=O)nn1-c1ccc(Cc2ccc(-c3ccc(CN4CCC[C@@H]4CO)cc3)cc2)cc1` [Example 38-5]: the values for the half-maximal activity concentration (AC50) in the test with FoxO3a and in the test with Akt were 26 nM and 27 nM, respectively.

`Cc1cc(C(N)=O)nn1-c1ccc(C(C)(C)c2ccc(C3=CCC(=O)CC3)cc2)cc1` [Example 7, 5-methyl-1-(4-(2-(4′-oxo-2′,3′,4′,5′-tetrahydro-[1,1′-biphenyl]-4-yl)propan-2-yl)phenyl)-1H-pyrazole-3-carboxamide]: the AC50 in the test with FoxO3a was found to be 58 nM; in the test with Akt it was 276 nM.

In the case of `Cc1cc(C(N)=O)nn1-c1ccc(C(C)(C)c2ccc(-c3cccc(S(C)(=O)=O)c3)cc2)cc1` [Example 6-2, 5-methyl-1-(4-(2-(3′-(methylsulfonyl)-[1,1′-biphenyl]-4-yl)propan-2-yl)phenyl)-1H-pyrazole-3-carboxamide], the AC50 worked out at 480 nM in the test on FoxO3a and 1810 nM in the test on Akt.

Regarding `Cc1nc(C(N)=O)nn1-c1ccc(C(C)(C)c2ccc(-c3ccc(S(=O)(=O)N(C)C)cc3)cc2)cc1` [Example 13-2], the values for the AC50 in the test on FoxO3a and in the test on Akt were 112 nM and 252 nM, respectively.
